Converted amounts (≈) assume the structure as drawn.
Columns and labels:
Staphylococcus aureus [1] = test: In vitro antibacterial activity against Staphylococcus aureus 285; type: functional
Escherichia coli [2] = test: In vitro antibacterial activity against Escherichia coli 1507E; type: functional
Pseudomonas aeruginosa [3] = test: In vitro antibacterial activity against Pseudomonas aeruginosa 1771M; type: functional
Klebsiella aerogenes = test: In vitro antibacterial activity against Klebsiella aerogenes 1522E; type: functional
Staphylococcus aureus [4] = test: In vitro antibacterial activity against Staphylococcus aureus SG 511; type: functional
Pseudomonas aeruginosa [5] = test: In vitro antibacterial activity against Pseudomonas aeruginosa 9027; type: functional
Escherichia coli [6] = test: In vitro antibacterial activity against Escherichia coli 078; type: functional
Streptococcus pyogenes = test: In vitro antibacterial activity against Streptococcus pyogenes 308A; type: functional
Salmonella typhimurium = test: In vitro antibacterial activity against Salmonella Typhimurium; type: functional, Salmonella enterica subsp. enterica serovar Typhimurium; conditions: Salmonella enterica
Enterobacter cloacae = test: In vitro antibacterial activity against Enterobacter cloacae 1321E; type: functional
Staphylococcus aureus [7] = test: In vitro antibacterial activity against Staphylococcus aureus 503; type: functional
Sus scrofa = species: Sus scrofa; test: DHP-I stability of compound relative to t1/2 of hydrolysis to meropenem; type: functional; design: scale not given: the % may be the effect or the level left
[8] = Half life of compound after iv administration of 20 mg/kg dose in rat; type: ADME, organism-based; design: dose 20 mg/kg, route intravenous; conditions: in vivo
[9] = Clearance of compound after iv administration of 20 mg/kg dose in rat; type: ADME, organism-based; design: dose 20 mg/kg, route intravenous; conditions: in vivo
[10] = Area under curve of compound after iv administration of 20 mg/kg dose in rat; type: ADME, organism-based; design: dose 20 mg/kg, route intravenous; conditions: in vivo

Row | SMILES | MIC (Staphylococcus aureus [1]) | MIC (Escherichia coli [2]) | MIC (Pseudomonas aeruginosa [3]) | MIC (Klebsiella aerogenes) | MIC (Staphylococcus aureus [4]) | MIC (Pseudomonas aeruginosa [5]) | MIC (Escherichia coli [6]) | MIC (Streptococcus pyogenes) | MIC (Salmonella typhimurium) | MIC (Enterobacter cloacae) | MIC (Staphylococcus aureus [7]) | Stability (Sus scrofa) | half-life [8] | clearance [9] | AUC [10]
1 | C[C@@H](O)[C@H]1C(=O)N2C(C(=O)O)=C(S[C@@H]3CN[C@H](CSc4nccc(C(F)(F)F)n4)C3)[C@H](C)[C@H]12 | 0.098 µg/mL (≈ 0.194 µM) | 0.025 µg/mL (≈ 0.0495 µM) | 0.781 µg/mL (≈ 1.55 µM) | 0.049 µg/mL (≈ 0.0971 µM) | 0.098 µg/mL (≈ 0.194 µM) | 50 µg/mL (≈ 99.1 µM) | 0.025 µg/mL (≈ 0.0495 µM) | 7 ng/mL (≈ 0.0139 µM) | 0.049 µg/mL (≈ 0.0971 µM) | 0.025 µg/mL (≈ 0.0495 µM) | 0.025 µg/mL (≈ 0.0495 µM) | – | – | – | –
2 | Cc1nnc(SC[C@@H]2C[C@H](SC3=C(C(=O)O)N4C(=O)[C@H]([C@@H](C)O)[C@H]4[C@H]3C)CN2)s1 | 0.025 µg/mL (≈ 0.0548 µM) | 0.007 µg/mL (≈ 0.0153 µM) | 0.195 µg/mL (≈ 0.427 µM) | 0.025 µg/mL (≈ 0.0548 µM) | 0.025 µg/mL (≈ 0.0548 µM) | 3.12 µg/mL (≈ 6.84 µM) | 0.007 µg/mL (≈ 0.0153 µM) | 4 ng/mL (≈ 0.00876 µM) | 0.025 µg/mL (≈ 0.0548 µM) | 0.013 µg/mL (≈ 0.0285 µM) | 0.007 µg/mL (≈ 0.0153 µM) | 108% | – | – | –
3 | C[C@@H](O)[C@H]1C(=O)N2C(C(=O)O)=C(S[C@@H]3CN[C@H](C(=O)N(C)C)C3)[C@H](C)[C@H]12 [MEROPENEM] | 0.195 µg/mL (≈ 0.509 µM) | 0.025 µg/mL (≈ 0.0652 µM) | 0.049 µg/mL (≈ 0.128 µM) | 0.049 µg/mL (≈ 0.128 µM) | 0.195 µg/mL (≈ 0.509 µM) | 0.195 µg/mL (≈ 0.509 µM) | 0.025 µg/mL (≈ 0.0652 µM) | 13 ng/mL (≈ 0.0339 µM) | 0.049 µg/mL (≈ 0.128 µM) | 0.025 µg/mL (≈ 0.0652 µM) | 0.098 µg/mL (≈ 0.256 µM) | 100% | – | – | –
4 | CNC(=O)c1cccnc1SC[C@@H]1C[C@H](SC2=C(C(=O)O)N3C(=O)[C@H]([C@@H](C)O)[C@H]3[C@H]2C)CN1 | < 0.049 µg/mL | 0.098 µg/mL (≈ 0.199 µM) | 1.56 µg/mL (≈ 3.17 µM) | 0.098 µg/mL (≈ 0.199 µM) | < 0.049 µg/mL | 12.5 µg/mL (≈ 25.4 µM) | 0.049 µg/mL (≈ 0.0995 µM) | < 2 ng/mL | 0.098 µg/mL (≈ 0.199 µM) | 0.049 µg/mL (≈ 0.0995 µM) | 0.025 µg/mL (≈ 0.0507 µM) | – | – | – | –
5 | C[C@@H](O)[C@H]1C(=O)N2C(C(=O)O)=C(S[C@@H]3CN[C@H](CSc4ncccn4)C3)[C@H](C)[C@H]12 | 0.049 µg/mL (≈ 0.112 µM) | 0.049 µg/mL (≈ 0.112 µM) | 0.391 µg/mL (≈ 0.896 µM) | 0.098 µg/mL (≈ 0.224 µM) | 0.025 µg/mL (≈ 0.0573 µM) | 3.12 µg/mL (≈ 7.16 µM) | 0.049 µg/mL (≈ 0.112 µM) | < 2 ng/mL | 0.098 µg/mL (≈ 0.224 µM) | 0.049 µg/mL (≈ 0.112 µM) | 0.025 µg/mL (≈ 0.0573 µM) | 89% | – | – | –
6 | C[C@@H](O)[C@H]1C(=O)N2C(C(=O)O)=C(S[C@@H]3CN[C@H](CSc4nnnn4C)C3)[C@H](C)[C@H]12 | 0.049 µg/mL (≈ 0.111 µM) | 0.025 µg/mL (≈ 0.0567 µM) | 0.195 µg/mL (≈ 0.443 µM) | 0.025 µg/mL (≈ 0.0567 µM) | 0.025 µg/mL (≈ 0.0567 µM) | 0.781 µg/mL (≈ 1.77 µM) | 0.025 µg/mL (≈ 0.0567 µM) | 4 ng/mL (≈ 0.00908 µM) | 0.025 µg/mL (≈ 0.0567 µM) | 0.025 µg/mL (≈ 0.0567 µM) | 0.025 µg/mL (≈ 0.0567 µM) | 88% | 11 min | – | –
7 | C[C@@H](O)[C@H]1C(=O)N2C(C(=O)O)=C(S[C@@H]3CN[C@H](CSc4ncccc4O)C3)[C@H](C)[C@H]12 | 0.049 µg/mL (≈ 0.109 µM) | 0.195 µg/mL (≈ 0.432 µM) | 6.25 µg/mL (≈ 13.8 µM) | 0.195 µg/mL (≈ 0.432 µM) | 0.025 µg/mL (≈ 0.0554 µM) | 25 µg/mL (≈ 55.4 µM) | 0.195 µg/mL (≈ 0.432 µM) | < 2 ng/mL | 0.195 µg/mL (≈ 0.432 µM) | 0.098 µg/mL (≈ 0.217 µM) | 0.195 µg/mL (≈ 0.432 µM) | – | – | – | –
8 | C[C@@H](O)[C@H]1C(=O)N2C(C(=O)O)=C(S[C@@H]3CN[C@H](CSc4nncn4C)C3)[C@H](C)[C@H]12 | 0.098 µg/mL (≈ 0.223 µM) | 0.049 µg/mL (≈ 0.111 µM) | 0.195 µg/mL (≈ 0.444 µM) | 0.098 µg/mL (≈ 0.223 µM) | 0.049 µg/mL (≈ 0.111 µM) | 1.56 µg/mL (≈ 3.56 µM) | 0.025 µg/mL (≈ 0.0569 µM) | 13 ng/mL (≈ 0.0296 µM) | 0.098 µg/mL (≈ 0.223 µM) | 0.049 µg/mL (≈ 0.111 µM) | 0.025 µg/mL (≈ 0.0569 µM) | 93% | – | – | –
9 | Cc1ccnc(SC[C@@H]2C[C@H](SC3=C(C(=O)O)N4C(=O)[C@H]([C@@H](C)O)[C@H]4[C@H]3C)CN2)n1 | 0.098 µg/mL (≈ 0.217 µM) | 0.098 µg/mL (≈ 0.217 µM) | 6.25 µg/mL (≈ 13.9 µM) | 0.098 µg/mL (≈ 0.217 µM) | 0.049 µg/mL (≈ 0.109 µM) | 25 µg/mL (≈ 55.5 µM) | 0.049 µg/mL (≈ 0.109 µM) | 7 ng/mL (≈ 0.0155 µM) | 0.098 µg/mL (≈ 0.217 µM) | 0.098 µg/mL (≈ 0.217 µM) | 0.025 µg/mL (≈ 0.0555 µM) | 122% | – | – | –
10 | C[C@@H](O)[C@H]1C(=O)N2C(C(=O)O)=C(SCCNC=N)C[C@H]12.O [IMIPENEM] | – | – | – | – | – | – | – | – | – | – | – | – | 3.46 min | – | –
11 | C[C@@H](O)[C@H]1C(=O)N2C(C(=O)O)=C(S[C@@H]3CN[C@H](CSc4cnns4)C3)[C@H](C)[C@H]12 | 0.049 µg/mL (≈ 0.111 µM) | 0.013 µg/mL (≈ 0.0294 µM) | 0.195 µg/mL (≈ 0.441 µM) | 0.025 µg/mL (≈ 0.0565 µM) | 0.025 µg/mL (≈ 0.0565 µM) | 1.56 µg/mL (≈ 3.53 µM) | 0.013 µg/mL (≈ 0.0294 µM) | 7 ng/mL (≈ 0.0158 µM) | 0.025 µg/mL (≈ 0.0565 µM) | 0.013 µg/mL (≈ 0.0294 µM) | 0.013 µg/mL (≈ 0.0294 µM) | 167% | 43.1 min | 10.2 mL/min/kg | 36900 ng·h/mL
